The values that follow come from PMC8900464 (Journal of medicinal chemistry, 2022).

Data set [1] relates to total AKT (T-AKT). The data set is described as follows: Immunoblotting of total AKT in BT474 cells. The note with it: 24 h, western blot; for AKT (T-AKT) degradation: BT474 cells, 1, 5 and 10 μM. The format is cell-based. For orientation: In western blotting, separated proteins are transferred to a membrane and probed.
Data set [2] has as its system BT474 cells. In words: Cell colony formation assay. The format is cell-based. The following applies: 14 days.
In data set [3] the test system is PC3 cells. The data set is described as follows: Cell proliferation assay. The class given is cell-based, human. The following applies: 5 days.
For data set [4], the system named is T-AKT. In words: T-AKT degradation in PC3 cells. The class given is cell-based, human. The following applies: for T-AKT level after washout: 48 h post-treatment.
The test system of data set [5] is MDA-MB-468 cells. The data set is described as follows: Cell proliferation assay. The format is cell-based. The following applies: 5 days.
Data set [6] deals with P-AKT (S473), P-PRAS40 (T246), P-S6 (S240/244). The data set is described as follows: Immunoblotting of P-AKT and downstream signaling in BT474 cells. The format is cell-based. The following applies: 24 h; for downstream signaling inhibition: P-PRAS40 and P-S6, western blot.
Data set [7] deals with P-PRAS40, P-S6. The data set is described as follows: Downstream signaling in PC3 cells. The note with it: for downstream signaling inhibition after washout: 1 μM for 24 h, then washout.
The subject of data set [8] is PC-3 xenografts. The following applies: PC3 xenograft, 75 mg/kg once daily IP; cited from earlier work.
The test system of data set [9] is T-AKT, P-AKT, P-PRAS40. In words: Western blotting analysis of xenograft tumor samples. The following applies: PC3 xenograft, 75 mg/kg once daily IP, end of study. The format is in vivo, mice.
Data set [10] relates to T-AKT. In words: Competition. The format is cell-based, human. The following applies: PC3 cells, then compound 24 h.
Data set [11] deals with PC-3 xenografts. The format is in vivo. The note with it: PC3 xenograft mice, 75 mg/kg once daily IP, 22 days.
The nature of data set [12]: Mouse pharmacokinetic study. The class given is in vivo, mice. The note with it: male, Swiss Albino, plasma, ip, 150 mg/kg.
[13] abbreviates: BT474 cells, 1 μM, western blot.

Entries after “also recorded” stand apart in the source; their conditions may differ. Where only a bound is given, the exact number is not on record here.

A word on the GI50: it is the concentration at which growth is held to half of that of the control. The term AUC denotes concentration integrated over time. By Cmax is commonly meant the peak of the concentration-time curve. By Tmax is commonly meant the time from dosing to the highest level.

On to `NC1(C(=O)N[C@@H](CCN2CCN(C(=O)CCOCCOCCOCCOCCOCCOc3cccc4c3C(=O)N(C3CCC(=O)NC3=O)C4=O)CC2)c2ccc(Cl)cc2)CCN(c2ncnc3[nH]ccc23)CC1` (stereo partly drawn) [Compound 40, 4-Amino-N-((1S)-1-(4-chlorophenyl)-3-(4-(1-((2-(2,6-dioxopiperidin-3-yl)-1,3-dioxoisoindolin-4-yl)oxy)-3,6,9,12,15-pentaoxaoctadecan-18-oyl)piperazin-1-yl)propyl)-1-(7H-pyrrolo[2,3-d]pyrimidin-4-yl)piperidine-4-carboxamide], for which the “AKT (T-AKT) degradation” value in data set [1] is “did not improve”. In data set [2], the “inhibition of colony formation” value is on record as “did not improve”.
As to `CN1C(=O)CCC(N2C(=O)c3cccc(NCCOCCOCCOCCOCCOCCC(=O)N4CCN(CC[C@H](NC(=O)C5(N)CCN(c6ncnc7[nH]ccc67)CC5)c5ccc(Cl)cc5)CC4)c3C2=O)C1=O` (stereo partly drawn) [Compound 43, 4-Amino-N-((1S)-1-(4-chlorophenyl)-3-(4-(1-((2-(1-methyl-2,6-dioxopiperidin-3-yl)-1,3-dioxoisoindolin-4-yl)amino)-3,6,9,12,15-pentaoxaoctadecan-18-oyl)piperazin-1-yl)propyl)-1-(7H-pyrrolo-[2,3-d]pyrimidin-4-yl)piperidine-4-carboxamide], the 50% growth inhibitory concentration (GI50) entry in [3] and in data set [5] was “inactive” in each case. Moreover, in [4] (concentrations up to 10 μM, 24 h), the T-AKT protein level entry was “did not reduce the T-AKT protein level”.
As for `Cc1ncsc1-c1ccc([C@H](C)NC(=O)[C@@H]2C[C@@H](O)CN2C(=O)[C@@H](NC(=O)CCCCCCCCCC(=O)N2CCN(CC[C@H](NC(=O)C3(N)CCN(c4ncnc5[nH]ccc45)CC3)c3ccc(Cl)cc3)CC2)C(C)(C)C)cc1` [Compound 23, 4-Amino-N-((S)-1-(4-chlorophenyl)-3-(4-(11-(((S)-1-((2S,4R)-4-hydroxy-2-(((S)-1-(4-(4-methylthiazol-5-yl)phenyl)ethyl)carbamoyl)-pyrrolidin-1-yl)-3,3-dimethyl-1-oxobutan-2-yl)amino)-11-oxoundecanoyl)piperazin-1-yl)propyl)-1-(7H-pyrrolo[2,3-d]-pyrimidin-4-yl)piperidine-4-carboxamide], the downstream signaling inhibition entry in [6] (BT474 cells, 1, 5 and 10 μM) was “did not show significant difference from 19”. The “AKT (T-AKT) degradation” value in data set [1] was “did not show significant difference from 19”. The “inhibition of colony formation” value in data set [2] was “did not show significant difference from 19”.
Regarding “4-Amino-N-[(1S)-1-(4-chlorophenyl)-3-hydroxypropyl]-1-(7H-pyrrolo[2,3-d]pyrimidin-4-yl)piperidine-4-carboxamide [AZD5363, reference compound]”, in data set [3], the GI50 amounted to 6.5 ± 2.9 µM. For the same compound, the “downstream signaling inhibition after washout” value in [7] (24 h post-treatment) is “near fully recovered”. For the same compound, the “PRAS40 and S6 phosphorylation” value in [7] (1 μM, 24 h) was “effectively inhibited PRAS40 and S6 phosphorylation”. The tumor growth inhibition in [8] is recorded as 75%. For the same compound, in [4] (1 μM, 24 h), the AKT protein level entry is listed as “did not significantly reduce the AKT protein level”. Halving of growth in [5] (GI50) required 3.8 ± 1.6 µM. Further, in data set [6] (setting [13]), the “downstream signaling (PRAS40 and S6 phosphorylation)” value is “effectively inhibited the phosphorylation of downstream PRAS40 and ribosomal protein S6”; the “phosphorylated AKT level” value is on record as “paradoxically upregulated the phosphorylated AKT level”. The T-AKT protein level result in data set [1] (BT474 cells, 1 μM) was “downregulated the T-AKT protein level”.
Take `Cc1ncsc1-c1ccc(CNC(=O)[C@@H]2C[C@@H](O)CN2C(=O)[C@@H](NC(=O)CCCCCCCCCCC(=O)N2CCN(CC[C@H](NC(=O)C3(N)CCN(c4ncnc5[nH]ccc45)CC3)c3ccc(Cl)cc3)CC2)C(C)(C)C)cc1` [Compound 20, 4-Amino-N-((S)-1-(4-chlorophenyl)-3-(4-(12-(((S)-1-((2S,4R)-4-hydroxy-2-((4-(4-methylthiazol-5-yl)benzyl)carbamoyl)pyrrolidin-1-yl)-3,3-dimethyl-1-oxobutan-2-yl)amino)-12-oxododecanoyl)-piperazin-1-yl)propyl)-1-(7H-pyrrolo[2,3-d]pyrimidin-4-yl)-piperidine-4-carboxamide]: in data set [9], the “T-AKT and P-AKT in tumor samples” value was “substantially degraded T-AKT and P-AKT”; the “downstream signaling (PRAS40 phosphorylation) in tumor samples” value was “effectively inhibited the downstream signaling”. Moreover, the “AKT degradation after pretreatment with MLN4924 or MG-132” value in data set [10] (2 h pretreatment) is given as “significantly diminished the AKT degradation effect”. For the same compound, the “AKT degradation after pretreatment with excess AZD5363” value in data set [10] (AZD5363 (1 μM) 2 h) is “rescued the AKT protein level”. For the same compound, the “AKT degradation after pretreatment with excess VHL ligand VHL-2” value in [10] (VHL-2 (1 μM) 2 h) is listed as “restored the AKT protein level effectively”. For the same compound, the “downstream signaling inhibition after washout” value in [7] (48 h post-treatment) is given as “partially recovered”. For the same compound, the “time to complete depletion of T-AKT” value in data set [4] (1 μM) is reported as not above 8 h. Further, in data set [4] (1 μM for 24 h, then washout), the “T-AKT level after washout” value is listed as “partially recovered”. In addition, in data set [4] (washout experiments), the “duration of sustained AKT degradation post treatment” value lay in the range of 1 to 2 days. Moreover, the tolerability result in data set [11] was “well tolerated”. In addition, the downstream signaling inhibition result in data set [6] (BT474 cells, 1, 5 and 10 μM) is “slightly enhanced downstream signaling inhibition compared to 19”. In data set [2], the “inhibition of colony formation” value is “highly effective in inhibiting colony formation; also recorded: effectively inhibited colony formation”.
Take `Cc1ncsc1-c1ccc(CNC(=O)[C@@H]2C[C@@H](O)CN2C(=O)[C@@H](NC(=O)CCCCCCCCCCCC(=O)N2CCN(CC[C@H](NC(=O)C3(N)CCN(c4ncnc5[nH]ccc45)CC3)c3ccc(Cl)cc3)CC2)C(C)(C)C)cc1` [Compound 21, 4-Amino-N-((S)-1-(4-chlorophenyl)-3-(4-(13-(((S)-1-((2S,4R)-4-hydroxy-2-((4-(4-methylthiazol-5-yl)benzyl)carbamoyl)pyrrolidin-1-yl)-3,3-dimethyl-1-oxobutan-2-yl)amino)-13-oxotridecanoyl)-piperazin-1-yl)propyl)-1-(7H-pyrrolo[2,3-d]pyrimidin-4-yl)-piperidine-4-carboxamide]: the downstream signaling inhibition result in data set [6] (BT474 cells, 1, 5 and 10 μM) is “slightly enhanced downstream signaling inhibition compared to 19”. In [2], the “inhibition of colony formation” value was “highly effective in inhibiting colony formation”.
Regarding `NC1(C(=O)N[C@@H](CCN2CCN(C(=O)CCCNc3cccc4c3C(=O)N(C3CCC(=O)NC3=O)C4=O)CC2)c2ccc(Cl)cc2)CCN(c2ncnc3[nH]ccc23)CC1` (stereo partly drawn) [Compound 26, 4-Amino-N-((1S)-1-(4-chlorophenyl)-3-(4-(4-((2-(2,6-dioxopiperidin-3-yl)-1,3-dioxoisoindolin-4-yl)amino)butanoyl)piperazin-1-yl)-propyl)-1-(7H-pyrrolo[2,3-d]pyrimidin-4-yl)piperidine-4-carboxamide], the downstream signaling inhibition result in data set [6] (BT474 cells, 1, 5 and 10 μM) is “moderate effectiveness”. The “AKT (T-AKT) degradation” value in [1] is given as “moderate effectiveness”.
Regarding `Cc1ncsc1-c1ccc(CNC(=O)[C@@H]2C[C@@H](O)CN2C(=O)[C@@H](NC(=O)COCC(=O)N2CCN(CC[C@H](NC(=O)C3(N)CCN(c4ncnc5[nH]ccc45)CC3)c3ccc(Cl)cc3)CC2)C(C)(C)C)cc1` [Compound 3, 4-Amino-N-((S)-1-(4-chlorophenyl)-3-(4-(2-(2-(((S)-1-((2S,4R)-4-hydroxy-2-((4-(4-methylthiazol-5-yl)benzyl)carbamoyl)pyrrolidin-1-yl)-3,3-dimethyl-1-oxobutan-2-yl)amino)-2-oxoethoxy)acetyl)-piperazin-1-yl)propyl)-1-(7H-pyrrolo[2,3-d]pyrimidin-4-yl)-piperidine-4-carboxamide], the downstream signaling inhibition result in data set [6] (BT474 cells, 1, 5 and 10 μM) is “most effective inhibition of the downstream signaling”. In [1], the “AKT (T-AKT) degradation” value is on record as “most significant T-AKT degradation”.
For the compound `NC1(C(=O)N[C@@H](CCN2CCN(C(=O)CCOCCOCCOCCOCCOCCNc3cccc4c3C(=O)N(C3CCC(=O)NC3=O)C4=O)CC2)c2ccc(Cl)cc2)CCN(c2ncnc3[nH]ccc23)CC1` (stereo partly drawn) [Compound 35, 4-Amino-N-((1S)-1-(4-chlorophenyl)-3-(4-(1-((2-(2,6-dioxopiperidin-3-yl)-1,3-dioxoisoindolin-4-yl)amino)-3,6,9,12,15-pentaoxaoctadecan-18-oyl)piperazin-1-yl)propyl)-1-(7H-pyrrolo[2,3-d]-pyrimidin-4-yl)piperidine-4-carboxamide], in data set [12], the exposure (AUC) is 32500 ng·h/mL, the Cmax worked out at 8 µM and the Tmax turned out to be 1 h. For the same compound, the “downstream signaling inhibition after washout” value in data set [7] (24 h post-treatment) is “near fully recovered”. In addition, the “AKT protein level after washout” value in [4] (1 μM for 24 h, then washout, 24 h post-treatment) is “rebounded substantially”. The “T-AKT level after washout” value in data set [4] (1 μM for 24 h, then washout) was “completely recovered”. The “inhibition of phosphorylation of ribosomal protein S6” value in [6] (BT474 cells, 1, 5 and 10 μM, among 32–38) was “most effective in inhibiting the phosphorylation of ribosomal protein S6”.
In the case of `NC1(C(=O)N[C@@H](CCN2CCN(C(=O)CCOCCOCCOCCOCCOCCCc3cccc4c3C(=O)N(C3CCC(=O)NC3=O)C4=O)CC2)c2ccc(Cl)cc2)CCN(c2ncnc3[nH]ccc23)CC1` (some centres unmarked) [Compound 41], in [1], the “AKT (T-AKT) degradation” value is reported as “did not improve”. In addition, the “inhibition of colony formation” value in data set [2] is “did not improve”.
